These results are taken from patent publication US6436705B1, “Shape stabilized erythrocytes” (The United States of America as represented by the …, priority 1997, dated 2002).

Format in all cases: cell-based, human
The test system of test [1] is Red blood cells. In words: Metabolic viability: ATP content of red blood cells over time. The method, then: The metabolic viability of cross-linked cells was assayed by monitoring the production and depletion of ATP over time. DTBP cells were cross-linked in 5 mM DTBP 150 mM glucose for 5 hours at 4° C. The cells were then washed 3 times and incubated in 150 mM glucose for an additional 19 hrs. After washing to remove the glucose the cells were incubated at 4° C. in PBS for 72 hrs before being returned to 150 mM glucose for the final 24 hr incubation. At each time point cells were removed, washed, and spectrophotometrically assayed for ATP as described in the text. The glucose controls were cells treated in the same manor but without crosslinking, and the control cells are cells without exposure to glucose.

Test [2] has as its system erythrocytes. In words: Assay of capacity for shape change (LPC-induced echinocytosis, microscopy). The note with it: 5 mM DTBP for 1 h, then 10 μg/ml LPC. The method, then: Microscopy. Cross-linked and reversed cells were prepared as described in the section on erythrocyte preparation, etc., with the addition of 0.5% bovine serum albumin to the solution prior microscopic examination. Cells were examined using an Nikon Optiphot, equipped with PlanApo 20×objective.
Assay of capacity for shape change. To induce echinocytosis ([…]), erythrocytes were incubated with 10μg/ml LPC for 2 min at room temperature. Erythrocytes were pretreated with 5 mM DTBP for 1 h and then subjected to 10 μg/ml LPC treatment. Microscopic examination of cell morphology was performed. Erythrocytes were pretreated with 5 mM DTBP for 1 h, reversed with 10 mM DTT for 20 min and then subjected to 10 μg/ml LPC treatment. Microscopic examination followed. Erythrocyte response to LPC of normal, cross-linked and reversed cells was compared.

Test [3] deals with Red blood cells. In words: Deformability measurements with an ektacytometer (Shear-scan, Osmo-scan). The note with it: 5 mM DTBP for 1 h. The protocol:
Red blood cells were cross-linked with 5 mM DTBP for 1 h. Cross-linking was reversed with 10 mM DTT for 20 min. Deformability measurements were made with fresh untreated, cross-linked, and reversed cells as well as with untreated packed cells stored in CPDA-1 for 6 weeks at 4° C. The effects of cross-linking and reversal on red blood cell deformability were measured with an ektacytometer (Technicon).
The ektacytometer is a laser diffraction viscometer described in detail by Bessiss and Mohandas. Intact red blood cells and ghosts suspended in solution produce a diffuse circular laser diffraction pattern. The instrument takes advantage of the fact that when a shear force is applied to the solution crossing the beam the cells align in the direction of shear and begin deforming into uniformly oriented ellipsoids. The laser diffraction pattern then takes on an ellipsoidal shape oriented 90° from the major elliptical cell axis, with the ratio of the long axis to the short axis length determined by the degree of cell deformation. A signal proportional to mean cellular ellipticity is derived from photometric measurement of this laser diffraction pattern in the two axis directions and is designated the deformability index (DI).
Two types of deformability profiles were generated in the present experiments. […] Shear-scans were run with 40 μl of concentrated cell suspension (80% hematocrit) mixed with 3.0 ml of 3.1% (w/v) polyvinylpyrrolidone (P, av-MW 360 kD) solution containing 138 mM NaCl, 6.34 mM Na2HPO4, 2 mM NaH2PO4, and 0.04% (w/v) NaN3 with pH=7.35±0.05, osmolality=290 mOsmol/kg (by freezing point depression), and viscosity=20 cp (assumed). Osmo-scans were run by continuous addition of this suspension medium containing 100 μl of cells to a PVP solution with a graded salt concentration. Salt gradients were made by addition of high salt PVP solution with 386 mM NaCI (osmolality=750 mOsmol/kg) to a low salt PVP solution with 2.5 mM NaCl (osmolality=40 mOsmol/kg). Conductance measurements of the cell suspension in the viscometer provided an indirect measure of osmolality, which was calculated from a standard calibration curve.
Data was recorded onto a computer, and curves were fitted and plotted using custom routines in Matlab (The Math Works Inc, Natick, Mass.). Shear scans were fitted with a polynomial of degree 6 from which the maximum DI (DImax) was calculated. Osmo-scans were fitted with a running average, and DImax was calculated within the range of 180-240 mOsmol/Kg, along with the osmolality corresponding to 1/2DImax at hypertonic salt concentrations (0′), where DI decreases with increasing intracellular viscosity secondary to cell shrinkage and increased hemoglobin concentration (see Mohandas et al., J. Clin. Invest. 66563-73(1980)). The osmolality corresponding to the minimum DI (Omin) at hypotonic salt concentrations, where DI falls due to cell swelling, was also calculated. The height of the small DI peak thought to be associated with the sudden availability of excess membrane for deformation as intracellular ions and water are lost in the lower range of hypotonic salt (63-125 mOsmol/Kg) concentrations was also recorded (see Clark et al., Blood 61 899-910 (1983)).

SMILES strings stand for the structures.

With `COC(=N)CCSSCCC(=N)OC` [DTBP, Dimethyl-3,3′-dithiobispropionimidate], the “ATP Content” value stood at 51.7 µmol/dL in test [1] (5 mM DTBP 5 h, 72 hrs in PBS); 51.5 µmol/dL in test [1] (5 mM DTBP 5 h, final 24 hrs in glucose after PBS); 76.1 µmol/dL in test [1] (5 mM DTBP 5 h at 4° C., 24 hrs in glucose (first)). The ATP in test [1] (5 mM DTBP 5 h, after 72 hours in PBS at 4° C.) amounted to 51.7 µmol/dL. For the same molecule, in test [2], the “effect on LPC-induced echinocytosis” value is “completely blocked”. Also, the DImax in test [3] (Osmo-scan) was 0.30. Besides, the “Omin (osmolality corresponding to the minimum DI)” value in test [3] (Osmo-scan) came out at 125 mOsmol/Kg. The “O′ (osmolality corresponding to 1/2DImax at hypertonic salt)” value in test [3] (Osmo-scan) is reported as 264 mOsmol/Kg. Also, the “reduction of DImax” value in test [3] (Osmo-scan, FIG. 7) came to 36%. Besides, the “reduction of red cell deformability as a function of shear stress” value in test [3] (Shear-scan, FIG. 6) is listed as “over half”.
